Source: patent US5866597A, “Use of triazine compounds for the treatment of memory and learning disorders” (Glaxo Wellcome Inc., priority 1993, dated 1999)

How the values were obtained:
[1] = tested on: scopolamine-induced deficit in rats; assay: Light-dark box memory test in rats, sub-acute dosing: pre-training, pre-training and pre-retest, or four pre-treatments and before training and retest (Table 5); assay type: in vivo, Male Wistar rats; conditions: for Mean latency Day 5 / Mean latency Day 6: ± SEM
Method: (§1) Male Wistar rats obtained from Charles River were used. They were housed under controlled conditions (temperature 21±2 deg. C., humidity approx. 50%, 12 hour light/dark cycle, food and water ad lib) for one week before use. On the day before test the rats were permanently housed in groups of six. Food and water were supplied ad lib. On the test day, animals were weighed and then dosed either 30 minutes before test (midazolam), one hour before test (compound A) or immediately after test.
In the sub-acute dosing regimen (see `Procedure`) the rats, housed as above, received six doses of drug or vehicle by the oral route, each 24 hours apart.
(§2) All drugs were dissolved or suspended in 0.25% (w/v) aqueous celacol, and administered orally (by gavage), i.p. or s.c. The dose volume was 5 ml/kg for all routes.
(§3) An identical apparatus to that described in Example 1 was used, except that the smaller box measured 370 mm×260 mm×190 mm.
(§4) This consisted of training as described for mice under section (d) of Example 1.
The procedure was identical with that described above, except that seven groups of rats received compound A or control pre-treatment as 6 oral doses each 24 hours apart, as follows.
Training took place 1 hour after the fifth dose i.e. on day 5. […] The usual retest was performed 24 hours later (on day 6), one hour after the sixth oral treatment.
(§5) This was as described under section (e) of Example 1.
The mean latency to enter the dark box±standard error of the mean was calculated from a group of 24 animals (controls in first block) or 12 animals (all other treatments). For a given treatment, figures in the columns labelled `Day 5` and `Day 6` show the mean latencies taken from the same group of animals. The difference between data obtained on the two days is illustrated by showing the % decrease, and the data compared using the Mann-Whitney U-test.

[2] = tested on: scopolamine-induced deficit in rats; assay: Light-dark box memory test in rats, scopolamine-induced deficit, single dose pre-training (Tables 3 and 4); assay type: in vivo, Male Wistar rats; conditions: for Mean latency Day 1 / Mean latency Day 2: ± SEM
Method: as §1, §2, §3, §4
Test drugs or control fluids were given before or immediately after the training session.
as §5

[3] = saline + compound A 2.5 mg/kg p.o. days 1-6
[4] = saline + compound A 10 mg/kg p.o. day 5 only
[5] = saline + compound A 10 mg/kg p.o. days 1-6
[6] = saline + compound A 10 mg/kg p.o. days 5 and 6
[7] = saline + compound A 40 mg/kg p.o. day 5 only
[8] = saline + compound A 40 mg/kg p.o. days 5 and 6
[9] = scopolamine 0.1 mg/kg s.c. + compound A 2.5 mg/kg p.o. days 1-6
[10] = scopolamine 0.1 mg/kg s.c. + compound A 10 mg/kg p.o. day 5 only
[11] = scopolamine 0.1 mg/kg s.c. + compound A 10 mg/kg p.o. days 1-6
[12] = scopolamine 0.1 mg/kg s.c. + compound A 10 mg/kg p.o. days 5 and 6
[13] = scopolamine 0.1 mg/kg s.c. + compound A 40 mg/kg p.o. day 5 only
[14] = scopolamine 0.1 mg/kg s.c. + compound A 40 mg/kg p.o. days 5 and 6
[15] = saline s.c. + compound A 40 mg/kg p.o.
[16] = scopolamine 0.1 mg/kg s.c. + compound A 10 mg/kg p.o.
[17] = scopolamine 0.1 mg/kg s.c. + compound A 20 mg/kg p.o.
[18] = scopolamine 0.1 mg/kg s.c. + compound A 40 mg/kg p.o.

Structure (SMILES): Nc1nnc(-c2cccc(Cl)c2Cl)c(N)n1 [Compound A, 3,5-Diamino-6-(2,3-dichlorophenyl)-1,2,4-triazine]
- Effect on scopolamine-induced deficit ([1]; compound A single dose 10 mg/kg before the learning trial): did not alter the scopolamine-induced deficit
- Diff. between days, % ([1]; saline + compound A 2.5 mg/kg p.o. days 1-6, p <0.01): 46%
- Mean latency Day 5 [1, 3]: 35.3 ± 3.7 s
- Mean latency Day 6 [1, 3]: 19.3 ± 2.5 s
- Diff. between days, % ([1]; saline + compound A 10 mg/kg p.o. day 5 only, p <0.001): 52%
- Mean latency Day 5 [1, 4]: 39.8 ± 3.9 s
- Mean latency Day 6 [1, 4]: 19.3 ± 2.5 s
- Diff. between days, % ([1]; saline + compound A 10 mg/kg p.o. days 1-6, p <0.01): 44%
- Mean latency Day 5 [1, 5]: 34.3 ± 3.6 s
- Mean latency Day 6 [1, 5]: 19.1 ± 3.4 s
- Diff. between days, % ([1]; saline + compound A 10 mg/kg p.o. days 5 and 6, p <0.001): 48%
- Mean latency Day 5 [1, 6]: 37.2 ± 3.1 s
- Mean latency Day 6 [1, 6]: 19.3 ± 2.6 s
- Diff. between days, % ([1]; saline + compound A 40 mg/kg p.o. day 5 only, p <0.01): 45%
- Mean latency Day 5 [1, 7]: 35.2 ± 3.4 s
- Mean latency Day 6 [1, 7]: 19.3 ± 3.4 s
- Diff. between days, % ([1]; saline + compound A 40 mg/kg p.o. days 5 and 6, p <0.001): 50%
- Mean latency Day 5 [1, 8]: 36.0 ± 3.2 s
- Mean latency Day 6 [1, 8]: 17.8 ± 2.2 s
- Diff. between days, % ([1]; scopolamine 0.1 mg/kg s.c. + compound A 2.5 mg/kg p.o. days 1-6, p NS): 16%
- Mean latency Day 5 [1, 9]: 33.8 ± 3.0 s
- Mean latency Day 6 [1, 9]: 28.4 ± 3.4 s
- Diff. between days, % ([1]; scopolamine 0.1 mg/kg s.c. + compound A 10 mg/kg p.o. day 5 only, p NS): -4%
- Mean latency Day 5 [1, 10]: 34.3 ± 2.8 s
- Mean latency Day 6 [1, 10]: 15.8 ± 4.5 s
- Diff. between days, % ([1]; scopolamine 0.1 mg/kg s.c. + compound A 10 mg/kg p.o. days 1-6, p <0.01): 41%
- Mean latency Day 5 [1, 11]: 35.4 ± 3.2 s
- Mean latency Day 6 [1, 11]: 20.8 ± 3.6 s
- Diff. between days, % ([1]; scopolamine 0.1 mg/kg s.c. + compound A 10 mg/kg p.o. days 5 and 6, p NS (0.1)): 28%
- Mean latency Day 5 [1, 12]: 38.2 ± 4.3 s
- Mean latency Day 6 [1, 12]: 27.7 ± 3.5 s
- Diff. between days, % ([1]; scopolamine 0.1 mg/kg s.c. + compound A 40 mg/kg p.o. day 5 only, p printed #0.001): 46%
- Mean latency Day 5 [1, 13]: 33.3 ± 2.6 s
- Mean latency Day 6 [1, 13]: 18.0 ± 2.0 s
- Diff. between days, % ([1]; scopolamine 0.1 mg/kg s.c. + compound A 40 mg/kg p.o. days 5 and 6, p <0.01): 48%
- Mean latency Day 5 [1, 14]: 33.6 ± 3.6 s
- Mean latency Day 6 [1, 14]: 17.5 ± 2.5 s
- Difference between days, % Decrease ([2]; saline s.c. + compound A 40 mg/kg p.o., p <0.001): 50%
- Mean latency Day 1 [2, 15]: 38.3 ± 3.8 s
- Mean latency Day 2 [2, 15]: 19.3 ± 3.0 s
- Difference between days, % Decrease ([2]; scopolamine 0.1 mg/kg s.c. + compound A 10 mg/kg p.o., p NS): 0%
- Mean latency Day 1 [2, 16]: 40.8 ± 4.8 s
- Mean latency Day 2 [2, 16]: 40.8 ± 4.6 s
- Difference between days, % Decrease ([2]; scopolamine 0.1 mg/kg s.c. + compound A 20 mg/kg p.o., p NS*): 16%
- Mean latency Day 1 [2, 17]: 37.7 ± 4.4 s
- Mean latency Day 2 [2, 17]: 31.7 ± 3.9 s
- Difference between days, % Decrease ([2]; scopolamine 0.1 mg/kg s.c. + compound A 40 mg/kg p.o., p <0.01): 45%
- Mean latency Day 1 [2, 18]: 38.4 ± 4.1 s
- Mean latency Day 2 [2, 18]: 21.1 ± 3.6 s
